Test results: ChEMBL document CHEMBL1150465, “DNA topoisomerase II inhibition by substituted 1,2,3,4-tetrahydro--carboline derivatives” (Bioorg Med Chem Lett, 1994)
Blank lines part the entries; values can stand above or below the molecule they belong to. Activity calls are given as the source filed them. The calls are words filed in the database; no cut-off is given here.

Assays:
[1] = molecular target: T1, DNA topoisomerase II (Homo sapiens) (UniProt P11388+Q02880); experiment: Compound was tested for DNA Topoisomerase II mediated cleavage of DNA; No increase; assay type: protein assay
[2] = molecular target: T1, DNA topoisomerase II (Homo sapiens); experiment: Compound was tested for DNA Topoisomerase II mediated cleavage of DNA; Each + indicates 2 to 4 fold increase; assay type: protein assay
[3] = test system: Nucleic Acid; experiment: DNA intercalating activity was determined; Each + indicates a 2 to 4 fold increase; assay type: functional
[4] = test system: Nucleic Acid; experiment: DNA intercalating activity was determined; Each (+) indicates 1 to 2 -fold increase; assay type: functional
[5] = molecular target: T1, DNA topoisomerase II (Homo sapiens); experiment: Compound was tested for DNA Topoisomerase II mediated cleavage of DNA; Each (+) indicates 1 to 2 -fold increase; assay type: protein assay
[6] = molecular target: T1, DNA topoisomerase II (Homo sapiens); experiment: Compound was tested for DNA Topoisomerase II mediated cleavage of DNA; inactive; assay type: protein assay

SMILES: COC(=O)N1CCc2cc3c(cc2C1c1cc(OC)c(O)c(OC)c1)OCO3 (configuration not stated)
- Activity [1]: No increase

SMILES: COc1cc(C2C3Nc4ccccc4C3CC3CCC(=O)N32)cc(OC)c1O (configuration not stated)
- Activity [2]: ++

SMILES: COc1cc([C@@H]2c3cc4c(cc3[C@@H](O[C@@H]3O[C@@H]5CO[C@@H](C)O[C@H]5[C@H](O)[C@H]3O)[C@H]3COC(=O)[C@H]23)OCO4)cc(OC)c1O
- Activity [4]: (+)
- Activity [2]: ++

SMILES: COC(=O)N1CCc2c([nH]c3ccccc23)C1c1ccc(NS(C)(=O)=O)c(OC)c1 (configuration not stated)
- Activity [5]: +

SMILES: COC(=O)N1CCc2c([nH]c3ccccc23)C1c1ccc(O)cc1 (configuration not stated)
- Activity [6]: inactive

SMILES: COC(=O)N1CCc2c([nH]c3ccccc23)C1c1ccc(N)c(OC)c1 (configuration not stated)
- Activity [5]: +

Second part, led by results:

- Activity [2]: ++(+)
SMILES: COC(=O)N1CCc2c([nH]c3ccccc23)C1c1cc(OC)c(O)c(OC)c1 (stereo in doubt; 4)
- Activity [3]: denotes 2 to 4 fold increase

- Activity [6]: inactive
SMILES: COC(=O)N1CCc2c([nH]c3ccccc23)C1c1cc(OC)c(OC)c(OC)c1 (configuration not stated)

- Activity [2]: denotes 2 to 4 fold increase
SMILES: COC(=O)N1CCc2c([nH]c3ccccc23)C1c1cc(OC)c(O)c(OC)c1 (stereo in doubt; 5)
- Activity [4]: (+)
